Patent US20230114728A1 (Venatorx Pharmaceuticals, Inc., priority 2019, published 2023)
In brackets after ≈: the same amount, converted by molar mass. Where two headings read alike, the source gives them in different places.

Assays:
N. gonorrhoeae FA1090 = assay: Liquid broth MIC in Fastidious broth; type: cell-based; details: Neisseria gonorrhoeae
Outline: (§1)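 Colonies were swabbed from chocolate agar after 24 h growth and standardised by optical density at 600 nm. Compounds were serially diluted twofold in Fastidious broth, and bacteria added to give 5×10^5 CFU/mL. After about 24 h at 36 °C in 5% CO2, the lowest concentration allowing under 10% growth was taken as MIC.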

N. gonorrhoeae H041 = assay: Liquid broth MIC in Fastidious broth; type: cell-based; details: Neisseria gonorrhoeae, H041, read-out: Minimum Inhibitory Concentration, N. gonorrhoeae H041
Outline: (§2)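 Mosaic PBP2 producers; colonies from 24 h chocolate agar, saline suspension, OD600. Fastidious broth, 2-fold dilutions, 5×10^5 CFU/mL. ~24 h, 36 °C, 5% CO2; visual MIC, <10% growth cutoff.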

N. gonorrhoeae WHO G = assay: Liquid broth MIC in Fastidious broth; type: cell-based; details: Neisseria gonorrhoeae, read-out: Minimum Inhibitory Concentration, N. gonorrhoeae WHO G
Outline: as §1

N. gonorrhoeae WHO L = assay: Liquid broth MIC in Fastidious broth; type: cell-based; details: Neisseria gonorrhoeae, read-out: Minimum Inhibitory Concentration, N. gonorrhoeae WHO L
Outline: as §1

[1] = test system: N. gonorrhoeae ATCC 49226; assay: Liquid broth MIC in Fastidious broth; type: cell-based; details: Neisseria gonorrhoeae
Outline: as §1

N. gonorrhoeae WHO K = assay: Liquid broth MIC in Fastidious broth; type: cell-based; details: Neisseria gonorrhoeae, read-out: Minimum Inhibitory Concentration, N. gonorrhoeae WHO K
Outline: as §2

P. aeruginosa PBP3 = molecular target: T1, P. aeruginosa PBP3 (Pseudomonas aeruginosa, UniProt G3XD46); assay: Bocillin-FL fluorescence polarization competition binding assay, P. aeruginosa PBP3; details: fluorescence polarization competition binding assay using Bocillin-FL
T1 construct: made in house
T1 sequence (G3XD46 whole entry): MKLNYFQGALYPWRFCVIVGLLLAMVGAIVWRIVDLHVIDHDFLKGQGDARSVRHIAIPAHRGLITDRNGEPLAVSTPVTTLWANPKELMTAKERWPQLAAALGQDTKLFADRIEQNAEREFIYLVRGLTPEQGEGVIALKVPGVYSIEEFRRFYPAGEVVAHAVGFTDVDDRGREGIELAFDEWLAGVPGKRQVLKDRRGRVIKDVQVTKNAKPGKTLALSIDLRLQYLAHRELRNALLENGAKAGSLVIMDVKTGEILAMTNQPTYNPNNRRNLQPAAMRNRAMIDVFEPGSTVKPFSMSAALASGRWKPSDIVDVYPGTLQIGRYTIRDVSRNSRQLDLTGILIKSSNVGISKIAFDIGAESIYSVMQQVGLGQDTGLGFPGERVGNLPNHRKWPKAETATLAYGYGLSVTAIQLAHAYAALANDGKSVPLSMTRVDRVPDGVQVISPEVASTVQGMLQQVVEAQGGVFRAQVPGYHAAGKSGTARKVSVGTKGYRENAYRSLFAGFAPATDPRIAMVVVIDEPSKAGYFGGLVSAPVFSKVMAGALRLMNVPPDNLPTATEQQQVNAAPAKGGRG
Outline: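 Inhibitor competition with Bocillin-FL for P. aeruginosa PBP3 was followed by fluorescence polarization on a Cytation3 (BioTek) reader, using g-factor 0.96, 490 nm excitation and 520 nm emission. The enzyme was at 0.75 μM and the probe at 0.1 μM in Hepes/NaCl/glycerol buffer, 80 μl per well. FP was recorded immediately after probe addition for up to 60 minutes. Potency was expressed as EC50, the concentration that reduces bound probe by 50%.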

[2] = N. gonorrhoeae strain FA1090, Fastidious broth, read-out: Minimum Inhibitory Concentration, N. gonorrhoeae FA1090
[3] = N. gonorrhoeae strain WHO G, Fastidious broth
[4] = N. gonorrhoeae strain WHO L, Fastidious broth
[5] = ATCC49226, N. gonorrhoeae strain ATCC 49226, Fastidious broth, read-out: Minimum Inhibitory Concentration, N. gonorrhoeae ATCC 49226

SMILES	MIC (N. gonorrhoeae FA1090; [2]) [µg/mL]	MIC (N. gonorrhoeae H041) [µg/mL]	MIC (N. gonorrhoeae WHO G; [3]) [µg/mL]	MIC (N. gonorrhoeae WHO L; [4]) [µg/mL]	MIC [1, 5] [µg/mL]	MIC (N. gonorrhoeae WHO K) [µg/mL]	P. aeruginosa PBP3 Potency (P. aeruginosa PBP3)	MIC (N. gonorrhoeae FA1090; FA1090, read-out: Minimum Inhibitory Concentration, N. gonorrhoeae FA1090) [µg/mL]	MIC (N. gonorrhoeae WHO G) [µg/mL]	MIC (N. gonorrhoeae WHO L) [µg/mL]	MIC ([1]; ATCC49226, read-out: Minimum Inhibitory Concentration, N. gonorrhoeae ATCC 49226) [µg/mL]
CCN1CCN(C(=O)NC(C(=O)N[C@H]2Cc3cccc(C(=O)O)c3OB2O)c2ncc(C(=O)O)cc2F)C(=O)C1=O (stereo partly drawn) [Example 20, 6-(2-(((R)-8-carboxy-2-hydroxy-3,4-dihydro-2H-benzo[e][1,2]oxaborinin-3-yl)amino)-1-(4-ethyl-2,3-dioxopiperazine-1-carboxamido)-2-oxoethyl)-5-fluoronicotinic acid]	1 to 2 (≈ 1.75 to 3.5 µM)	16 to 32 (≈ 28 to 56 µM)	4 to 8 (≈ 7 to 14 µM)	> 64	4 to 8 (≈ 7 to 14 µM)	16 to 32 (≈ 28 to 56 µM)	D (D represents a potency <10 μM)				
CCN1CCN(C(=O)NC(C(=O)N[C@H]2Cc3cccc(C(=O)O)c3OB2O)c2ccc(O)c(N(S(C)(=O)=O)S(C)(=O)=O)c2)C(=O)C1=O (stereo partly drawn) [Example 21, (3R)-3-(2-(4-ethyl-2,3-dioxopiperazine-1-carboxamido)-2-(4-hydroxy-3-(N-(methylsulfonyl)methylsulfonamido)phenyl)acetamido)-2-hydroxy-3,4-dihydro-2H-benzo[e][1,2]oxaborinine-8-carboxylic acid]	4 to 8 (≈ 5.75 to 11.5 µM)	> 64	> 64	> 64	> 64	> 64	D (D represents a potency <10 μM)				
CCN1CCN(C(=O)NC(C(=O)N[C@H]2Cc3cccc(C(=O)O)c3OB2O)c2ccc(O)c(NS(C)(=O)=O)c2)C(=O)C1=O (stereo partly drawn) [Example 22, (3R)-3-(2-(4-ethyl-2,3-dioxopiperazine-1-carboxamido)-2-(4-hydroxy-3-(methylsulfonamido)phenyl)acetamido)-2-hydroxy-3,4-dihydro-2H-benzo[e][1,2]oxaborinine-8-carboxylic acid]	1 to 2 (≈ 1.62 to 3.24 µM)	> 64	16 to 32 (≈ 25.9 to 51.8 µM)	> 64	> 64	> 64	D (D represents a potency <10 μM)				
CS(=O)(=O)N1CCN(C(=O)NC(C(=O)N[C@H]2Cc3ccc(F)c(C(=O)O)c3OB2O)c2ccc(O)c(O)c2Cl)C1=O (stereo partly drawn) [Example 23, (3R)-3-(2-(2-chloro-3,4-dihydroxyphenyl)-2-(3-(methylsulfonyl)-2-oxoimidazolidine-1-carboxamido)acetamido)-7-fluoro-2-hydroxy-3,4-dihydro-2H-benzo[e][1,2]oxaborinine-8-carboxylic acid]	4 to 8 (≈ 6.51 to 13 µM)	> 64	16 to 32 (≈ 26 to 52.1 µM)	> 64	> 64	> 64	D (D represents a potency <10 μM)				
NCCN1CCN(C(=O)NC(C(=O)N[C@H]2Cc3ccc(F)c(C(=O)O)c3OB2O)c2nc(N)sc2F)C(=O)C1=O (stereo partly drawn) [Example 24, (3R)-3-(2-(2-amino-5-fluorothiazol-4-yl)-2-(4-(2-aminoethyl)-2,3-dioxopiperazine-1-carboxamido)acetamido)-7-fluoro-2-hydroxy-3,4-dihydro-2H-benzo[e][1,2]oxaborinine-8-carboxylic acid]	16 to 32 (≈ 27.5 to 55 µM)	> 64	16 to 32 (≈ 27.5 to 55 µM)	> 64	> 64	> 64	B (B represents a potency between 30 μM and 500 μM inclusive)				
NC(C(=O)N[C@H]1Cc2ccc(F)c(C(=O)O)c2OB1O)c1c(F)cc(O)c(O)c1Cl (stereo partly drawn) [Example 25, (3R)-3-(2-amino-2-(2-chloro-6-fluoro-3,4-dihydroxyphenyl)acetamido)-7-fluoro-2-hydroxy-3,4-dihydro-2H-benzo[e][1,2]oxaborinine-8-carboxylic acid]	> 64	> 64	> 64	> 64	> 64	> 64	B (B represents a potency between 30 μM and 500 μM inclusive)				
CCN1CCN(C(=O)NC(C(=O)N[C@H]2Cc3cccc(C(=O)O)c3OB2O)c2ccc(O)c(N)c2)C(=O)C1=O (stereo partly drawn) [Example 29, (3R)-3-(2-(3-amino-4-hydroxyphenyl)-2-(4-ethyl-2,3-dioxopiperazine-1-carboxamido)acetamido)-2-hydroxy-3,4-dihydro-2H-benzo[e][1,2]oxaborinine-8-carboxylic acid]	4 to 8 (≈ 7.42 to 14.8 µM)	> 64	16 to 32 (≈ 29.7 to 59.3 µM)	> 64	> 64	> 64	D (D represents a potency <10 μM)				
CCN1CCN(C(=O)NC(C(=O)N[C@H]2Cc3cccc(C(=O)O)c3OB2O)c2ccc(O)c(NS(N)(=O)=O)c2)C(=O)C1=O (stereo partly drawn) [Example 30, (3R)-3-(2-(4-ethyl-2,3-dioxopiperazine-1-carboxamido)-2-(4-hydroxy-3-(sulfamoylamino)phenyl)acetamido)-2-hydroxy-3,4-dihydro-2H-benzo[e][1,2]oxaborinine-8-carboxylic acid]	1 to 2 (≈ 1.62 to 3.23 µM)	> 64	16 to 32 (≈ 25.9 to 51.7 µM)	> 64	> 64	> 64	D (D represents a potency <10 μM)				
CCN1CCN(C(=O)NC(C(=O)N[C@H]2Cc3cccc(C(=O)O)c3OB2O)c2ccc(C(=O)O)c(F)c2)C(=O)C1=O (stereo partly drawn) [Example 31, (3R)-3-(2-(4-carboxy-3-fluorophenyl)-2-(4-ethyl-2,3-dioxopiperazine-1-carboxamido)acetamido)-2-hydroxy-3,4-dihydro-2H-benzo[e][1,2]oxaborinine-8-carboxylic acid]	< 0.125	4 to 8 (≈ 7.01 to 14 µM)	1 to 2 (≈ 1.75 to 3.51 µM)	4 to 8 (≈ 7.01 to 14 µM)	1 to 2 (≈ 1.75 to 3.51 µM)	4 to 8 (≈ 7.01 to 14 µM)	D (D represents a potency <10 μM)				
N[C@@H](C(=O)N[C@H]1Cc2ccc(F)c(C(=O)O)c2OB1O)c1ccc(OS(=O)(=O)F)cc1 [Example 32, (R)-3-((R)-2-amino-2-(4-((fluorosulfonyl)oxy)phenyl)acetamido)-7-fluoro-2-hydroxy-3,4-dihydro-2H-benzo[e][1,2]oxaborinine-8-carboxylic acid]		> 64				> 64	A (A represents a potency of >500 μM)	> 64	> 64	> 64	> 64
CCN1CCN(C(=O)NC(C(=O)N[C@H]2Cc3ccc(F)c(C(=O)O)c3OB2O)c2c(F)cc(O)c(O)c2F)C(=O)C1=O (stereo partly drawn) [Example 36, (3R)-3-(2-(2,6-difluoro-3,4-dihydroxyphenyl)-2-(4-ethyl-2,3-dioxopiperazine-1-carboxamido)acetamido)-7-fluoro-2-hydroxy-3,4-dihydro-2H-benzo[e][1,2]oxaborinine-8-carboxylic acid]	4 to 8 (≈ 6.73 to 13.5 µM)	16 to 32 (≈ 26.9 to 53.8 µM)	16 to 32 (≈ 26.9 to 53.8 µM)	> 64	16 to 32 (≈ 26.9 to 53.8 µM)	16 to 32 (≈ 26.9 to 53.8 µM)	D (D represents a potency <10 μM)				
O=C(O)c1c(F)ccc2c1OB(O)[C@@H](NC(=O)C(NC(=O)N1CCN(CCF)C(=O)C1=O)c1c(F)cc(O)c(O)c1F)C2 (stereo partly drawn) [Example 37, (3R)-3-(2-(2,6-difluoro-3,4-dihydroxyphenyl)-2-(4-(2-fluoroethyl)-2,3-dioxopiperazine-1-carboxamido)acetamido)-7-fluoro-2-hydroxy-3,4-dihydro-2H-benzo[e][1,2]oxaborinine-8-carboxylic acid]	4 to 8 (≈ 6.53 to 13.1 µM)	16 to 32 (≈ 26.1 to 52.3 µM)	16 to 32 (≈ 26.1 to 52.3 µM)	> 64	16 to 32 (≈ 26.1 to 52.3 µM)	16 to 32 (≈ 26.1 to 52.3 µM)	D (D represents a potency <10 μM)				
NCCCN1CCN(C(=O)NC(C(=O)N[C@H]2Cc3cccc(C(=O)O)c3OB2O)c2ccc(C(=O)O)cc2)C(=O)C1=O (stereo partly drawn) [Example 39, (3R)-3-(2-(4-(3-aminopropyl)-2,3-dioxopiperazine-1-carboxamido)-2-(4-carboxyphenyl)acetamido)-2-hydroxy-3,4-dihydro-2H-benzo[e][1,2]oxaborinine-8-carboxylic acid]	1 to 2 (≈ 1.72 to 3.44 µM)	> 64	4 to 8 (≈ 6.88 to 13.8 µM)	16 to 32 (≈ 27.5 to 55 µM)	4 to 8 (≈ 6.88 to 13.8 µM)	> 64	D (D represents a potency <10 μM)				
